Measurements: patent US20050049220A1, “Dosing regimen for Flaviviridae therapy” (priority 2003, published 2005)
Structures can show the parent of a compound that is named as a salt. Where two headings read alike, the source gives them in different places.

Tests used:
[1] = tested on: HCV replicon; assay: HCV replicon assay: HCV RNA by Q-RT-PCR, 4 days exposure; assay type: cell-based, hepatitis C virus (HCV); details: for log reduction at 10 µM: read-out: Corrected HCV RNA log10 reduction at 10 μM
Procedure: Antiviral screening assays can be done in the same media without G418 as follows: in order to keep cells in logarithmic growth phase, seed cells in a 96-well plate at low density, for example 1000 cells per well. Add the test compound immediate after seeding the cells and incubate for a period of 3 to 7 days at 37° C. in an incubator. Media is then removed, and the cells are prepared for total nucleic acid extraction (including replicon RNA and host RNA). Replicon RNA can then be amplified in a Q-RT-PCR protocol, and quantified accordingly. […] This value is called DeltaCt (ΔCt or DCt).
This value is called DeltaCt (ΔCt or dCt).

[2] = tested on: Huh-7 cells; assay: Cellular rRNA levels / cytotoxicity in HCV replicon cells; details: for log10 RNA reduction at 100 μM, rRNA: 4 days, HCV replicon transfected Huh-7 cells
From the text: In a typical setting, a compound might reduce both the host RNA polymerase activity and the replicon-encoded polymerase activity. Therefore, quantification of rRNA (or any other host RNA polymerase I product) or beta-actin mRNA (or any other host RNA polymerase II) and comparison with RNA levels of the no-drug control is a relative measurement of the effect of the test compound on host RNA polymerases.
With the availability of both the HCV ΔCt data and the rRNA ΔCt, a specificity parameter can be introduced. This parameter is obtained by subtracting both ΔCt values from each other.
IFN-α-2a and ribavirin were tested over a range of concentrations for their ability to reduce the HCV RNA levels in exponentially growing replicon cells after 4 days of exposure as described (Stuyver, L. et al. “A ribonucleoside analogue that blocks the replication of bovine viral diarrhea and hepatitis C viruses in culture” Antimicrob. Agents Chemother. 2003, 47, 244-254).
Gemcitabine was dissolved in DMSO and added to the culture media of a cellular model system of Huh7 cells harboring self-replicating HCV RNA, at final concentrations ranging from […]. In such experiments, one way to express the antiviral effectiveness of a compound is to subtract the threshold reverse-transcriptase polymerase chain reactions (RT-PCR) cycle of the test compound with the average threshold RT-PCR cycle of the negative control. This value is called DeltaCt (ΔCt or dCt). With the availability of both the HCV ΔCt data and the rRNA ΔCt, a specificity parameter can be introduced. This parameter is obtained by subtracting both ΔCt values from each other.

[3] = tested on: HCV replicon cells; assay: Prevention studies with natural ribo- or 2′-deoxy nucleosides; assay type: cell-based, human; details: test compound at 96 h EC90 value; nucleosides at 50 μM
[4] = tested on: HCV replicon cells (Huh-7); assay: 7-day cell growth dynamics, trypan-blue cell count; details: range of testing 50-1,000 nM; 7-day dynamics
Procedure: FIG. 2 is a graphical depiction of the dynamics of cell growth and HCV RNA levels after exposure to control anti-HCV compounds. HCV replicon cells were seeded at approximately 10^4 cells per well in a 24-well plate. Over a 7-day period, cells were counted daily, and rRNA and HCV RNA were quantified by Q-RT-PCR. A: IFN-α-2a at 100 IU/ml; B: ribavirin at 100 μM. ●: cell proliferation in absence of compound; ◯: cell proliferation in presence of compound; ▾: HCV RNA levels in untreated cells; ∇: HCV RNA levels in the presence of compound. The curves shown are averages of 3 independent experiments.
Therefore, experiments were conducted to monitor HCV RNA levels and the cell growth dynamics over a 7-day period.
The dynamics of HCV replicon cells exposed to these inhibitors (at their EC90 value) was monitored over a 7-day period.

[5] = tested on: HCV; assay: Single treatment of an HCV-infected patient, viral load; assay type: in vivo, human; details: for tolerance / adverse events: patient with multifocal HCC, cirrhosis, ischaemic hepatitis
Procedure: The tolerance was acceptable, and thus the next day the patient was given a second dosage of approximately 700 mg of gemcitabine. Before the second dosage the baseline viral load was 6.49 log copies/mL.

[6] = 100 μM, 4 days, HCV replicon transfected Huh-7 cells
[7] = 96 h incubation, read-out: Corrected HCV RNA EC90
[8] = Hepatitis C virus, 96 h, read-out: Corrected HCV RNA log10 reduction at 100 μM
[9] = Hepatitis C virus, 96 h, 100 μM, 4 days, HCV replicon transfected Huh-7 cells, read-out: log10 RNA reduction at 100 μM, HCV
[10] = Hepatitis C virus, 96 h incubation, read-out: Corrected HCV RNA EC90
[11] = Hepatitis C virus, 96 h, 10 μM, corrected for rRNA
[12] = Hepatitis C virus, 96 h, 100 μM, corrected for rRNA, read-out: Corrected HCV RNA log10 reduction at 100 μM
[13] = Hepatitis C virus, 96 h, read-out: Corrected HCV RNA EC90
[14] = Hepatitis C virus, Huh-7, 96 h, read-out: log10 RNA reduction at 100 μM, HCV
[15] = second dosage approximately 700 mg

Row | Structure (SMILES) | log10 RNA reduction at 100 μM, rRNA [2] [log10] | log reduction at 10 µM ([1]; Hepatitis C virus, 96 h) | log reduction at 100 µM [1, 8] | log reduction at 100 µM [1, 9] | EC90 [1, 10] [µM] | other results
1 | O=c1cnn([C@@H]2O[C@H](CO)[C@@H](O)[C@H]2O)c(=S)[nH]1 [2-thio-6-azauridine] | −0.02 ± 0.12 |  |  |  |  | Corrected HCV RNA log10 reduction at 10 μM ([1]; 10 μM, corrected for rRNA): 0.12 ± 0.10 log10; log10 RNA reduction at 100 μM, HCV [1, 6]: 0.16 ± 0.04 log10; Corrected HCV RNA log10 reduction at 100 μM ([1]; 100 μM, corrected for rRNA): 0.19 ± 0.09 log10; EC90 [1, 7]: > 100 µM
2 | O=c1[nH]c(=O)n([C@H]2C[C@H](O)[C@@H](CO)O2)cc1F [2′-deoxy-5-fluorouridine] | 0.73 ± 0.35 | 0.23 ± 0.05 | 0.04 ± 0.25 | 0.76 ± 0.06 | > 100 | 
3 | O=c1cnn([C@@H]2O[C@H](CO)[C@@H](O)[C@H]2O)c(=O)[nH]1 [6-azauridine] | 0.61 ± 0.18 |  |  | 0.25 ± 0.09 | > 100 | log reduction at 10 µM [1, 11]: 0.12 ± 0.05; log reduction at 100 µM [1, 12]: -0.36 ± 0.16
4 | Cc1c(-c2ccc(-c3ccccc3F)cc2)nc2ccc(F)cc2c1C(=O)O [Brequinar (NSC-368390), Brequinar] | 0.29 ± 0.01 |  |  | -0.05 ± 0.05 | > 100 | log reduction at 10 µM [1, 11]: -0.17 ± 0.09; log reduction at 100 µM [1, 12]: -0.34 ± 0.04
5 | COc1c(C)c2c(c(O)c1CCOP(=O)(O)CP(=O)(O)OC[C@H]1O[C@@H](n3cnc4c(N)ncnc43)[C@H](O)[C@@H]1O)C(=O)OC2 [C2-MAD] | 1.00 ± 0.15 |  |  |  |  | Corrected HCV RNA log10 reduction at 10 μM ([1]; 10 μM, corrected for rRNA): 0.36 ± 0.21 log10; log10 RNA reduction at 100 μM, HCV [1, 6]: 1.09 ± 0.21 log10; Corrected HCV RNA log10 reduction at 100 μM ([1]; 100 μM, corrected for rRNA): 0.08 ± 0.24 log10; EC90 [1, 7]: > 100 µM
6 | Nc1ccn([C@@H]2C=C(CO)[C@@H](O)[C@H]2O)c(=O)n1 [CPE-C, cyclopentenylcytosine] | 1.21 ± 0.16 |  |  | 2.47 ± 0.33 |  | EC90 [1, 7]: 2.5 µM; log reduction at 10 µM [1, 11]: 1.43 ± 0.01; log reduction at 100 µM [1, 12]: 1.26 ± 0.51
7 | CC(=O)N(O)CCCCCNC(=O)CCC(=O)N(O)CCCCCNC(=O)CCC(=O)N(O)CCCCCN [Deferoxamine] | 0.92 ± 0.08 |  |  |  | > 100 | Corrected HCV RNA log10 reduction at 10 μM ([1]; 10 μM, corrected for rRNA): 0.17 ± 0.11 log10; log reduction at 100 µM [1, 12]: 0.08 ± 0.03
8 | O=C1C(O)=C(CC=C(Cl)Cl)C(=O)c2ccccc21 [Dichloroallyl lawsone (NSC-126771), Dichloroallyl lawsone] | 2.13 ± 0.15 |  |  |  |  | Corrected HCV RNA log10 reduction at 10 μM ([1]; 10 μM, corrected for rRNA): −0.52 ± 0.01 log10; log10 RNA reduction at 100 μM, HCV [1, 6]: 1.27 ± 0.02 log10; Corrected HCV RNA log10 reduction at 100 μM ([1]; 100 μM, corrected for rRNA): −0.86 ± 0.17 log10; EC90 [1, 7]: > 100 µM
9 | Nc1n[nH]c(N)n1 [Guanazole] | 0.07 ± 0.03 | 0.05 ± 0.08 | 0.32 ± 0.08 |  |  | EC90 [1, 13]: > 100 µM; log reduction at 100 µM [1, 14]: 0.25 ± 0.11
10 | NC(=O)NO [Hydroxyurea] | 0.25 ± 0.20 |  | -0.08 ± 0.16 | 0.17 ± 0.08 | > 100 | log reduction at 10 µM [1, 11]: 0.06 ± 0.04
11 | CN(Cc1cnc2nc(N)nc(N)c2n1)c1ccc(C(=O)N[C@@H](CCC(=O)O)C(=O)O)cc1 [Methotrexate] | 0.07 ± 0.10 | 0.15 ± 0.01 | 0.11 ± 0.09 | 0.18 ± 0.01 | > 100 | 
12 | NC(=O)c1ncn([C@@H]2O[C@H](CO)[C@@H](O)[C@H]2O)c1O [Mizoribine] | 0.21 ± 0.50 | -0.14 ± 0.12 | 0.08 ± 0.82 | 0.29 ± 0.74 | > 100 | 
13 | COc1c(C)c2c(c(O)c1C/C=C(\C)CCC(=O)O)C(=O)OC2 [Mycophenolic acid] | 1.09 ± 0.28 | 0.22 ± 0.01 | 0.07 ± 0.47 | 1.15 ± 0.43 | > 100 | 
14 | O=C(O)C[C@H](NC(=O)CP(=O)(O)O)C(=O)O [PALA, N-(Phosphonoacetyl)-L-aspartate] | 0.48 ± 0.02 | 1.18 ± 0.11 | 1.3 ± 0.05 | 1.77 ± 0.02 |  | EC90 [1, 13]: 7.6 µM
15 | Nc1ccn(C2OC(CO)C(O)C2=CF)c(=O)n1 (centres unmarked) [Tezacytabine] | 1.78 ± 0.69 |  |  |  |  | Corrected HCV RNA log10 reduction at 10 μM ([1]; 10 μM, corrected for rRNA): 0.63 ± 0.07 log10; log10 RNA reduction at 100 μM, HCV [1, 6]: 1.59 ± 0.08 log10; Corrected HCV RNA log10 reduction at 100 μM ([1]; 100 μM, corrected for rRNA): −0.19 ± 0.49 log10; EC90 [1, 7]: > 100 µM
16 | NC(=O)c1csc([C@@H]2O[C@H](CO)[C@@H](O)[C@H]2O)n1 [Tiazofurin] | 0.99 ± 0.35 | 0.04 ± 0.1 | -0.13 ± 0.37 |  |  | EC90 [1, 13]: > 100 µM; log reduction at 100 µM [1, 14]: 0.86 ± 0.27
17 | Nc1ccn([C@@H]2O[C@H](CO)[C@@H](O)C2(F)F)c(=O)n1 [dFdC, 2′-deoxy-2′,2′-difluorocytidine] |  | 1.32 ± 0.08 |  |  |  | prevention of antiviral and cytostatic effects by natural nucleosides [3]: prevented by 2′-deoxycytidine; Corrected HCV RNA EC90 ([1]; 96 h incubation): Too toxic; antiviral activity on HCV replicon RNA ([1]; HCV replicon cells): most potent inhibitor of both replicon RNA and cells; EC90 ([1]; Hepatitis C virus, Huh-7, 96 h, 4-days incubation, Huh7 cells harboring self-replicating HCV RNA, read-out: EC90, reduction of replicon HCV RNA): ~0.07 µM; EC50 ([1]; Hepatitis C virus, Huh-7, Huh7 cells harboring self-replicating HCV RNA, read-out: EC50, reduction of HCV RNA levels): 0.04 µM; log10 RNA reduction, HCV ([1]; dFdC tested initially at 50 μM): 1.87 ± 0.16 log10; Corrected HCV RNA log10 reduction ([1]; dFdC tested initially at 50 μM, corrected for rRNA): 1.29 ± 0.11 log10; non-cytotoxic concentration [4]: could not be found; tolerance / adverse events ([5]; listed as gemcitabine): heart problems; baseline viral load before the second dosage ([5]; patient, day after 1200 mg gemcitabine HCl with oxaliplatine): 6.49 log copies/mL; HCV RNA eight hours after the second dosage [5, 15]: 4.04 log copies/mL; drop in HCV RNA in eight hours [5, 15]: ~2.5 log; IC50 ([2]; Homo sapiens, Huh-7): 0.24 µM; log10 RNA reduction, rRNA ([2]; dFdC tested initially at 50 μM): 0.59 ± 0.05 log10
18 | O=c1ccn(C2OC(CO)C(O)C2(F)F)c(=O)[nH]1 (centres unmarked) [dFdU] |  |  |  |  |  | dCT HCV ([1]; 7.0 μM): 6.39; ddCt ([1]; 7.0 μM, HCV dCt minus rRNA dCt): 4.42; dCt rRNA ([2]; 7.0 μM): 1.96
19 | Nc1ccn([C@@H]2O[C@H](CO)[C@@H](O)C2(F)F)c(=O)n1 [gemcitabine HCl] |  |  |  |  |  | tolerance / adverse events ([5]; HCl): acceptable
